From ChEMBL document CHEMBL1275464, “Characterization of the carbapenem-hydrolyzing oxacillinase oxa-58 in an Acinetobacter genospecies 3 clinical isolate” (2008) come the findings set out here.

Converted amounts (≈) assume the structure as drawn. Where only a bound is given, the exact number is not on record here.

What all share (assay type): functional
One assay concerns Acinetobacter pittii. Kind of assay: Antimicrobial activity against Acinetobacter genospecies 3 isolate Ac057 expressing beta-lactamase Oxa-58 by broth microdilution method. Background: In broth dilution the organism is exposed to a series of concentrations in liquid medium.
Assay [1] relates to Acinetobacter baumannii. As to the kind of experiment: Antimicrobial activity against Acinetobacter baumannii isolate Ac058 expressing beta-lactamase Oxa-58 by broth microdilution method.
In assay [2] the test system is Acinetobacter baumannii. As to the kind of experiment: Antimicrobial activity against Acinetobacter baumannii isolate Ac058 expressing beta-lactamase Oxa-58 by broth microdilution method in presence of beta-lactamase inhibitor Sulbactam.

In general, MIC refers to the lowest concentration found to suppress growth. For `CO[C@@]1(NC(=O)Cc2cccs2)C(=O)N2C(C(=O)O)=C(COC(N)=O)CS[C@@H]21` [CEFOXITIN], the MIC against Acinetobacter pittii and in the assay with Acinetobacter baumannii [1] was 256 µg/mL (≈ 599 µM) in each case.
With `CO[C@H]1/C=C/O[C@@]2(C)Oc3c(C)c(O)c4c(O)c(c(/C=N/N5CCN(C)CC5)c(O)c4c3C2=O)NC(=O)/C(C)=C\C=C\[C@H](C)[C@H](O)[C@@H](C)[C@@H](O)[C@@H](C)[C@H](OC(C)=O)[C@@H]1C` [RIFAMPIN], the MIC against Acinetobacter pittii and with Acinetobacter baumannii [1] was 2 µg/mL (≈ 2.43 µM) throughout.
Turning to `C[C@@H](O)[C@H]1C(=O)N2C(C(=O)O)=C(SCCNC=N)C[C@H]12` [IMIPENEM ANHYDROUS], the MIC against Acinetobacter pittii and against Acinetobacter baumannii [1] was greater than 32 µg/mL each time.
Regarding `NCC[C@H](O)C(=O)N[C@@H]1C[C@H](N)[C@@H](O[C@H]2O[C@H](CN)[C@@H](O)[C@H](O)[C@H]2O)[C@H](O)[C@H]1O[C@H]1O[C@H](CO)[C@@H](O)[C@H](N)[C@H]1O` [AMIKACIN], the results for the MIC in the assay on Acinetobacter pittii and in the assay with Acinetobacter baumannii [1] were 0.5 µg/mL (≈ 0.854 µM) and 256 µg/mL (≈ 437 µM), respectively.
`O=C(O)c1cn(C2CC2)c2cc(N3CCNCC3)c(F)cc2c1=O` [CIPROFLOXACIN]: in the assay on Acinetobacter pittii, the MIC was found to be 32 µg/mL (≈ 96.6 µM).
As to `CC1(C)S[C@@H]2[C@H](NC(=O)[C@H](N)c3ccccc3)C(=O)N2[C@H]1C(=O)O` [AMPICILLIN], the MIC was determined as 256 µg/mL (≈ 733 µM) against Acinetobacter pittii, 64 µg/mL in the assay with Acinetobacter baumannii [2] and 256 µg/mL (≈ 733 µM) in the assay on Acinetobacter baumannii [1].
Consider `C[C@H]1c2cccc(O)c2C(=O)C2=C(O)[C@]3(O)C(=O)C(C(N)=O)=C(O)[C@@H](N(C)C)[C@@H]3[C@@H](O)[C@@H]21.O` [DOXYCYCLINE], for which the MIC was less than 0.5 µg/mL in the assay with Acinetobacter pittii and 16 µg/mL against Acinetobacter baumannii [1].
Turning to `CO/N=C(\C(=O)N[C@@H]1C(=O)N2C(C(=O)[O-])=C(C[N+]3(C)CCCC3)CS[C@H]12)c1csc(N)n1` [CEFEPIME], the MIC against Acinetobacter pittii was 8 µg/mL (≈ 16.6 µM); against Acinetobacter baumannii [1], 64 µg/mL (≈ 133 µM).
For `CC(C)(O/N=C(\C(=O)N[C@@H]1C(=O)N2C(C(=O)[O-])=C(C[n+]3ccccc3)CS[C@H]12)c1csc(N)n1)C(=O)O` [CEFTAZIDIME], in that order: 8 µg/mL (≈ 14.6 µM) and 256 µg/mL (≈ 468 µM).
Turning to `CC[C@H]1OC(=O)[C@H](C)[C@@H](O[C@H]2C[C@@](C)(OC)[C@@H](O)[C@H](C)O2)[C@H](C)[C@@H](O[C@@H]2O[C@H](C)C[C@H](N(C)C)[C@H]2O)[C@](C)(O)C[C@@H](C)CN(C)[C@H](C)[C@@H](O)[C@]1(C)O` [AZITHROMYCIN], the MIC with Acinetobacter pittii worked out at 4 µg/mL (≈ 5.34 µM); in the assay with Acinetobacter baumannii [1], 128 µg/mL (≈ 171 µM).
`CC(=O)OCC1=C(C(=O)O)N2C(=O)[C@@H](NC(=O)Cc3cccs3)[C@H]2SC1` [CEPHALOTHIN]: the MIC against Acinetobacter pittii and against Acinetobacter baumannii [1] was 256 µg/mL (≈ 646 µM) each time.
As for `C[C@@H](O)[C@H]1C(=O)N2C(C(=O)O)=C(S[C@@H]3CN[C@H](C(=O)N(C)C)C3)[C@H](C)[C@H]12` [MEROPENEM], the MIC against Acinetobacter pittii and in the assay on Acinetobacter baumannii [1] was 8 µg/mL (≈ 20.9 µM) throughout.
With GENTAMICIN, the MIC in the assay with Acinetobacter pittii was less than 1 µg/mL; against Acinetobacter baumannii [1] it was 16 µg/mL.
In the same order, the values of POLYMYXIN B are 2 µg/mL and 1 µg/mL.
`NC[C@H]1O[C@H](O[C@H]2[C@H](O)[C@@H](O[C@H]3O[C@H](CO)[C@@H](O)[C@H](N)[C@H]3O)[C@H](N)C[C@@H]2N)[C@H](N)C[C@@H]1O` [TOBRAMYCIN]: the MIC is 0.25 µg/mL (≈ 0.535 µM) against Acinetobacter pittii and 64 µg/mL (≈ 137 µM) against Acinetobacter baumannii [1].
For `CCN1CCN(C(=O)N[C@@H](C(=O)N[C@@H]2C(=O)N3[C@@H]2SC(C)(C)[C@@H]3C(=O)O)c2ccccc2)C(=O)C1=O` [PIPERACILLIN], the MIC against Acinetobacter pittii and with Acinetobacter baumannii [1] was 512 µg/mL (≈ 989 µM) in each case.
